Source: patent EP0326331B1, “Substituted quinolines and cinnolines” (Dow AgroSciences LLC, priority 1988, dated 1989)

What was measured:
Type in all cases: in vivo
[1] = tested on: southern armyworm (Spodopetra eridania Cramer); assay: Mite/insect screen, SAW; conditions: percent mortality, SAW; for mortality at 200 ppm / mortality at 400 ppm: Spodoptera eridania, read-out: SAW RESULTS %; for mortality at 400 ppm: SM & MA RATE 400 PPM
Method in brief: (§1)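 Activity is expressed as percent mortality at the indicated spray concentrations. Plants are sprayed to runoff on upper and lower leaf surfaces with aqueous dilutions of an acetone/alcohol emulsifiable formulation, then dried for one hour.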

[2] = tested on: melon aphids (Aphis gossypii Glover); assay: Mite/insect screen, MA; conditions: percent mortality, SAW; for mortality at 200 ppm / mortality at 400 ppm: Aphis gossypii, read-out: MA RESULTS %; for mortality at 400 ppm: SM & MA RATE 400 PPM
Method in brief: as §1

[3] = tested on: Septoria tritici (leaf blotch); assay: Test 1 greenhouse foliar spray screen, leaf blotch on wheat; conditions: disease control rating, foliar spray on wheat, 400 ppm (+++ at 100 ppm)
[4] = tested on: Pseudoperonospora cubensis (downy mildew); assay: Test 1 greenhouse foliar spray screen, downy mildew on squash; conditions: disease control rating, foliar spray on squash, 400 ppm (+++ at 100 ppm)
[5] = tested on: corn rootworm; assay: Mite/insect screen, CRW; conditions: percent mortality; for mortality at 12 ppm / mortality at 24 ppm: read-out: CRW RESULTS %; for mortality at 24 ppm: CRW RATE 24.00 PPM
Method in brief: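 Each compound, taken up in an emulsifier-containing acetone/alcohol mixture and diluted in water to the stated concentrations, was assessed for percent kill following standard exposure times.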

[6] = tested on: Erysiphe graminis tritici (powdery mildew); assay: Test 1 greenhouse foliar spray screen, powdery mildew on wheat; conditions: disease control rating, foliar spray on wheat, 400 ppm (+++ at 100 ppm)
[7] = tested on: Venturia inaequalis (apple scab); assay: Test 1 greenhouse foliar spray screen, apple scab on apple seedling; conditions: disease control rating, foliar spray on apple seedling, 400 ppm (+++ at 100 ppm)
[8] = tested on: Cercospora beticola (leaf spot); assay: Test 1 greenhouse foliar spray screen, leaf spot on sugar beet; conditions: disease control rating, foliar spray on sugar beet, 400 ppm (+++ at 100 ppm)
[9] = tested on: Puccinia recondita tritici (leaf rust); assay: Test 1 greenhouse foliar spray screen, leaf rust on wheat; conditions: disease control rating, foliar spray on wheat, 400 ppm (+++ at 100 ppm)
[10] = tested on: Twospotted spider mites (Tetranychus urticae Koch); assay: Mite/insect screen, SM; conditions: for mortality at 200 ppm / mortality at 400 ppm: Tetranychus urticae, read-out: SM RESULTS %; for activity as miticides: summary statement in the description; for mortality at 400 ppm: SM & MA RATE 400 PPM
Method in brief: as §1

[11] = tested on: Pyricularia oryzae (rice blast); assay: whole plant or invertebrate; conditions: disease control rating, foliar spray on rice, 400 ppm (+++ at 100 ppm)
[12] = tested on: Botrytis cinerea (gray mold); assay: Test 1 greenhouse foliar spray screen, gray mold on grape berries; conditions: disease control rating, spray on grape berries, 400 ppm (+++ at 100 ppm)
[13] = percent mortality, SAW, SM & MA RATE 200 PPM

For `Fc1cccc2c(NCCc3ccc(Cl)cc3)ccnc12` [Example 96, N-[2-(4-chlorophenyl)ethyl)-8-fluoro-4-quinolinamine], the mortality at 200 ppm ([1]; SM & MA RATE 200 PPM) was 100%, the “SAW RESULTS %” value ([1]; SM & MA RATE 200 PPM) was 100% and the mortality at 200 ppm ([2]; SM & MA RATE 200 PPM) was 0%. For the same compound, the “MA RESULTS %” value ([2]; SM & MA RATE 200 PPM) was 0%, the “LEAF BLOT” value [3] was “+++ (90-100% control at 100 ppm)” and the “DOWN MDEW” value [4] was “+++ (90-100% control at 100 ppm)”. The “CRW RESULTS %” value ([5]; CRW RATE 12.00 PPM) was 0%, the mortality at 12 ppm ([5]; CRW RATE 12.00 PPM) was 0% and the “POWD MDEW” value [6] was “+ (20-89% control at 400 ppm)”. For the same compound, the “APPL SCAB” value [7] was “- (0-19% control at 400 ppm)”, the “LEAF SPOT” value [8] was “+++ (90-100% control at 100 ppm)” and the “LEAF RUST” value [9] was “+++ (90-100% control at 100 ppm)”. For the same compound, the mortality at 200 ppm [10, 13] was 0%, the “SM RESULTS %” value [10, 13] was 0% and the activity as miticides [10] was “particularly excellent activity”. The “RICE BLAST” value [11] was “+++ (90-100% control at 100 ppm)” and the “GRAY MOLD” value [12] was “- (0-19% control at 400 ppm)”.
`Fc1cccc2c(NCCc3ccc(Cl)cc3Cl)cc(Cl)nc12` [Example 98, 2-chloro-N-[2-(2,4-dichlorophenyl)ethyl]-8-fluoro-4-quinolinamine] was tested, and the mortality at 200 ppm ([1]; SM & MA RATE 200 PPM) was 0%, the mortality at 200 ppm ([2]; SM & MA RATE 200 PPM) was 0% and the “LEAF BLOT” value [3] was “- (0-19% control at 400 ppm)”. For the same compound, the “DOWN MDEW” value [4] was “++ (90-100% control at 400 ppm)”, the mortality at 12 ppm ([5]; CRW RATE 12.00 PPM) was 0% and the “POWD MDEW” value [6] was “- (0-19% control at 400 ppm)”. The “APPL SCAB” value [7] was “- (0-19% control at 400 ppm)”, the “LEAF SPOT” value [8] was “- (0-19% control at 400 ppm)” and the “LEAF RUST” value [9] was “++ (90-100% control at 400 ppm)”. The mortality at 200 ppm [10, 13] was 0%, the “RICE BLAST” value [11] was “+ (20-89% control at 400 ppm)” and the “GRAY MOLD” value [12] was “- (0-19% control at 400 ppm)”.
`FC(F)(F)c1cccc2c(NCCc3ccccc3)ccnc12` [Example 99, N-(2-phenylethyl)-8-(trifluoromethyl)-4-quinolinamine] was tested, and the mortality at 200 ppm ([1]; SM & MA RATE 200 PPM) was 0%, the mortality at 200 ppm ([2]; SM & MA RATE 200 PPM) was 0% and the “LEAF BLOT” value [3] was “- (0-19% control at 400 ppm)”. For the same compound, the “DOWN MDEW” value [4] was “+++ (90-100% control at 100 ppm)”, the mortality at 12 ppm ([5]; CRW RATE 12.00 PPM) was 0% and the “POWD MDEW” value [6] was “- (0-19% control at 400 ppm)”. For the same compound, the “APPL SCAB” value [7] was “- (0-19% control at 400 ppm)”, the “LEAF SPOT” value [8] was “+ (20-89% control at 400 ppm)” and the “LEAF RUST” value [9] was “+++ (90-100% control at 100 ppm)”. For the same compound, the mortality at 200 ppm [10, 13] was 0%, the “RICE BLAST” value [11] was “++ (90-100% control at 400 ppm)” and the “GRAY MOLD” value [12] was “- (0-19% control at 400 ppm)”.
With `Clc1ccc2c(NCCc3ccc(Cl)c(Cl)c3)ccnc2c1` [Example 101, 7-chloro-N-[2-(3,4-dichlorophenyl)ethyl]-4-quinolinamine] the mortality at 200 ppm ([1]; SM & MA RATE 200 PPM) was 0%, the mortality at 400 ppm [1] was 0% and the mortality at 200 ppm ([2]; SM & MA RATE 200 PPM) was 0%. For the same compound, the mortality at 400 ppm [2] was 0%, the “LEAF BLOT” value [3] was “- (0-19% control at 400 ppm)” and the “DOWN MDEW” value [4] was “+++ (90-100% control at 100 ppm)”. The mortality at 12 ppm ([5]; CRW RATE 12.00 PPM) was 0%, the mortality at 24 ppm [5] was 0% and the “POWD MDEW” value [6] was “+++ (90-100% control at 100 ppm)”. For the same compound, the “APPL SCAB” value [7] was “+ (20-89% control at 400 ppm)”, the “LEAF SPOT” value [8] was “+++ (90-100% control at 100 ppm)” and the “LEAF RUST” value [9] was “+ (20-89% control at 400 ppm)”. For the same compound, the mortality at 200 ppm [10, 13] was 0%, the mortality at 400 ppm ([10]; percent mortality, SAW) was 0% and the “RICE BLAST” value [11] was “- (0-19% control at 400 ppm)”. The “GRAY MOLD” value [12] was “- (0-19% control at 400 ppm)”.
With `Fc1cccc(Cl)c1CCNc1ccnc2c(F)cccc12` [Example 103, N-[2-(2-chloro-6-fluorophenyl)ethyl]-8-fluoro-4-quinolinamine] the mortality at 200 ppm ([1]; SM & MA RATE 200 PPM) was 0%, the mortality at 400 ppm [1] was 0% and the mortality at 200 ppm ([2]; SM & MA RATE 200 PPM) was 0%. The mortality at 400 ppm [2] was 0%, the “LEAF BLOT” value [3] was “+ (20-89% control at 400 ppm)” and the “DOWN MDEW” value [4] was “+++ (90-100% control at 100 ppm)”. The mortality at 12 ppm ([5]; CRW RATE 12.00 PPM) was 0%, the mortality at 24 ppm [5] was 0% and the “POWD MDEW” value [6] was “+ (20-89% control at 400 ppm)”. The “APPL SCAB” value [7] was “+++ (90-100% control at 100 ppm)”, the “LEAF SPOT” value [8] was “+ (20-89% control at 400 ppm)” and the “LEAF RUST” value [9] was “++ (90-100% control at 400 ppm)”. For the same compound, the mortality at 200 ppm [10, 13] was 0%, the mortality at 400 ppm ([10]; percent mortality, SAW) was 0% and the “RICE BLAST” value [11] was “++ (90-100% control at 400 ppm)”. For the same compound, the “GRAY MOLD” value [12] was “- (0-19% control at 400 ppm)”.
`FC(F)(F)c1ccc2c(NCCc3ccc(Cl)cc3Cl)ccnc2c1` [Example 104, N-[2-(2,4-dichlorophenyl)ethyl]-7-(trifluoromethyl)-4-quinolinamine] showed a mortality at 200 ppm ([1]; SM & MA RATE 200 PPM) of 0%, a mortality at 400 ppm [1] of 60% and a mortality at 200 ppm ([2]; SM & MA RATE 200 PPM) of 0%. For the same compound, the mortality at 400 ppm [2] was 0%, the “LEAF BLOT” value [3] was “- (0-19% control at 400 ppm)” and the “DOWN MDEW” value [4] was “++ (90-100% control at 400 ppm)”. For the same compound, the mortality at 12 ppm ([5]; CRW RATE 12.00 PPM) was 0%, the mortality at 24 ppm [5] was 0% and the “POWD MDEW” value [6] was “- (0-19% control at 400 ppm)”. For the same compound, the “APPL SCAB” value [7] was “+ (20-89% control at 400 ppm)”, the “LEAF SPOT” value [8] was “+ (20-89% control at 400 ppm)” and the “LEAF RUST” value [9] was “- (0-19% control at 400 ppm)”. For the same compound, the mortality at 200 ppm [10, 13] was 0%, the mortality at 400 ppm ([10]; percent mortality, SAW) was 0% and the “RICE BLAST” value [11] was “- (0-19% control at 400 ppm)”. The “GRAY MOLD” value [12] was “- (0-19% control at 400 ppm)”.
`CCN(CCc1ccc(Cl)cc1)c1ccnc2c(F)cccc12` [Example 105, N-[2-(4-chlorophenyl)ethyl]-N-ethyl-8-fluoro-4-quinolinamine] showed a mortality at 200 ppm ([1]; SM & MA RATE 200 PPM) of 30%, a mortality at 400 ppm [1] of 0% and a mortality at 200 ppm ([2]; SM & MA RATE 200 PPM) of 80%. For the same compound, the mortality at 400 ppm [2] was 50%, the “LEAF BLOT” value [3] was “+ (20-89% control at 400 ppm)” and the “DOWN MDEW” value [4] was “+++ (90-100% control at 100 ppm)”. The mortality at 12 ppm ([5]; CRW RATE 12.00 PPM) was 0%, the mortality at 24 ppm [5] was 0% and the “POWD MDEW” value [6] was “+++ (90-100% control at 100 ppm)”. The “APPL SCAB” value [7] was “- (0-19% control at 400 ppm)”, the “LEAF SPOT” value [8] was “+ (20-89% control at 400 ppm)” and the “LEAF RUST” value [9] was “+++ (90-100% control at 100 ppm)”. The mortality at 200 ppm [10, 13] was 100%, the mortality at 400 ppm ([10]; percent mortality, SAW) was 0% and the activity as miticides [10] was “particularly excellent activity”. For the same compound, the “RICE BLAST” value [11] was “++ (90-100% control at 400 ppm)” and the “GRAY MOLD” value [12] was “- (0-19% control at 400 ppm)”.
With `CN(c1ccc(F)cc1)c1ccnc2cc(Cl)ccc12` [Example 106, 7-chloro-N-(4-fluorophenyl)-N-methyl-4-quinolinamine] the mortality at 400 ppm [1] was 0%, the mortality at 400 ppm [2] was 0% and the “LEAF BLOT” value [3] was “+ (20-89% control at 400 ppm)”. For the same compound, the “DOWN MDEW” value [4] was “+ (20-89% control at 400 ppm)”, the mortality at 24 ppm [5] was 0% and the “POWD MDEW” value [6] was “++ (90-100% control at 400 ppm)”. The “APPL SCAB” value [7] was “- (0-19% control at 400 ppm)”, the “LEAF SPOT” value [8] was “+ (20-89% control at 400 ppm)” and the “LEAF RUST” value [9] was “+ (20-89% control at 400 ppm)”. For the same compound, the mortality at 400 ppm ([10]; percent mortality, SAW) was 0%, the “RICE BLAST” value [11] was “+ (20-89% control at 400 ppm)” and the “GRAY MOLD” value [12] was “- (0-19% control at 400 ppm)”.
